# Measured values published in ChEMBL document CHEMBL3392970, “Novel inhibitors of platelet aggregation” (ACS Med Chem Lett, 2015).
# Columns and labels:
# Plasma [1] = assay: Antiplatelet activity in rat platelet-rich plasma assessed as inhibition of platelet aggregation; assay type: functional, cell-free
# Plasma [2] = assay: Antiplatelet activity in human platelet-rich plasma assessed as inhibition of platelet aggregation; assay type: functional, cell-free
SMILES,IC50 (Plasma [1]),IC50 (Plasma [2])
CCCC(=O)c1cnn([C@H]2CC[C@H](NC(=O)c3cn(CC(=O)N4CCN(C)CC4)c4ccc(Cl)cc34)CC2)c1C,91 nM,270 nM
CCCC(=O)c1cnn(C2CCN(NC(=O)c3cn(CC(=O)N4CCN(C)CC4)c4ccc(Cl)cc34)CC2)c1C,43 nM,25 nM
